Assay [1] addresses T1, human RORγt ligand binding domain (RORγt LBD) (Homo sapiens, UniProt P51449).
T1 construct: His-tag (N); TurboTEV protease cleavage site (ENLYFQG) (N); made in house; host or cells: E. coli (pHIS1, a modified pET expression vector)
T1 sequence (P51449 with tags, fused parts or gaps): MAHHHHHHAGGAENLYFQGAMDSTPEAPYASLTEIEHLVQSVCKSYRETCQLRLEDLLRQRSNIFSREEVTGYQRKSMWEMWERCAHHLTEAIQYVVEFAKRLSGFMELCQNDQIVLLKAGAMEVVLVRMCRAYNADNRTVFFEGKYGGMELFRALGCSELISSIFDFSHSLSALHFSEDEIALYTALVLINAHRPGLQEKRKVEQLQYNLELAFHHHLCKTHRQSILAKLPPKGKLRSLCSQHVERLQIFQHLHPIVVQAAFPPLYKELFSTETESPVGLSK
Put plainly: RORγt ThermoFluor assay. The following applies: estimated from thermal shift concentration response. Put shortly: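 Thermal shift of RORγt LBD (0.065 mg/mL) with 60 μM 1,8-ANS in 100 mM Hepes pH 7.0, NaCl, GSH, 0.002% Tween-20, heated at 1° C/min. ANS fluorescence tracked versus temperature; ΔTm relative to DMSO wells. Compounds serially diluted 1:2 from 10 mM DMSO stock.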

In another assay the target is T2, full-length human RORγt (Homo sapiens, UniProt P51449).
T2 construct: expressed in transfected cells; host or cells: HEK293T, transiently transfected with pCMV-BD-ROR
T2 sequence (P51449 1-497 isoform P51449-2): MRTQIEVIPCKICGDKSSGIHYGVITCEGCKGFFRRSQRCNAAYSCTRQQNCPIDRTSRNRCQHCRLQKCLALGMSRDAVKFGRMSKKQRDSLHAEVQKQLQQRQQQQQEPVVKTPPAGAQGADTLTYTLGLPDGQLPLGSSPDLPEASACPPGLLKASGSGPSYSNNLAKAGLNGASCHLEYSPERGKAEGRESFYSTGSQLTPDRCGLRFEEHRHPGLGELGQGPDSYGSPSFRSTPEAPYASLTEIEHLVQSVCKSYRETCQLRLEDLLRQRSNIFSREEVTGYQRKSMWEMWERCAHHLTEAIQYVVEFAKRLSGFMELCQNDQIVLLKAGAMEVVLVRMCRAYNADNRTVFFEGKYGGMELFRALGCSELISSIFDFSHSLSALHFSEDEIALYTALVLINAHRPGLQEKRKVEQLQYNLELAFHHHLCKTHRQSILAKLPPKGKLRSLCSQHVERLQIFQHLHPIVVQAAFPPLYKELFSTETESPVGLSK
Put plainly: RORγt (full-length human) Reporter Assay, Conditions A. In kind it is cell-based. The following applies: for IC50: HEK293T cells, GAL4-DBD-RORγt, luciferase, read-out: RORγt (FL) Reporter Assay A, IC50; for inhibition at 2 µM: read-out: RORγt (FL) Reporter Assay A, % inhibition (* at 2 μM), 2 μM compound concentration (footnote *); for inhibition at 6 µM: read-out: RORγt (FL) Reporter Assay A, % inhibition @ 6 μM, 6 μM compound. Put shortly:
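Dual-luciferase readout after overnight (16 to 20 hours) treatment: firefly values scaled between DMSO-only and saturating reference-compound controls, then corrected by Renilla. Percent inhibition calculated against DMSO control, with IC50 derived from concentration-response plots.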
For orientation: A reporter such as luciferase makes a cellular process visible.

For the compound `C[C@H](NS(=O)(=O)c1ccc(-c2sc(-c3noc(=O)[nH]3)nc2C(=O)N2CCC(F)CC2)c(Cl)c1Cl)C(F)(F)F` [Example 14, (S)-2,3-Dichloro-4-(4-(4-fluoropiperidine-1-carbonyl)-2-(5-oxo-4,5-dihydro-1,2,4-oxadiazol-3-yl)thiazol-5-yl)-N-(1,1,1-trifluoropropan-2-yl)benzenesulfonamide], the Kd in assay [1] is 280 nM. Besides, on full-length human RORγt, the IC50 was more than 2000 nM and the inhibition at 2 µM was -25%.

For the compound `CC[C@H](NS(=O)(=O)c1ccc(-c2sc(-c3nnc(C(C)(C)O)o3)nc2C(=O)N2CCC(F)(F)CC2)c(Cl)c1)C(F)(F)F` [Example 6/12, (S)-3-Chloro-4-(4-(4,4-difluoropiperidine-1-carbonyl)-2-(5-(2-hydroxypropan-2-yl)-1,3,4-oxadiazol-2-yl)thiazol-5-yl)-N-(1,1,1-trifluorobutan-2-yl)benzenesulfonamide], in assay [1], the Kd is 10 nM. Also, at full-length human RORγt, the IC50 was 55 nM and the inhibition at 6 µM worked out at 103%.

Take `CC(C)(O)c1nnc(-c2nc(C(=O)N3CCC(F)(F)CC3)c(-c3ccc(CC(O)(C(F)(F)F)C(F)(F)F)c(Cl)c3)s2)o1` [Example 8/3, (5-(3-Chloro-4-(3,3,3-trifluoro-2-hydroxy-2-(trifluoromethyl)propyl)phenyl)-2-(5-(2-hydroxypropan-2-yl)-1,3,4-oxadiazol-2-yl)thiazol-4-yl)(4,4-difluoropiperidin-1-yl)methanone]: the Kd in assay [1] was 6.3 nM. For the same compound, on full-length human RORγt, the IC50 was 83 nM and the inhibition at 2 µM was 104%.

For the compound `CC[C@H](NS(=O)(=O)c1ccc(-c2sc(-c3nnc(CC(C)(C)C#N)o3)nc2C(=O)N2CCC(F)CC2)c(Cl)c1Cl)C(F)(F)F` [Example 1/1, (S)-2,3-Dichloro-4-(2-(5-(2-cyano-2-methylpropyl)-1,3,4-oxadiazol-2-yl)-4-(4-fluoropiperidine-1-carbonyl)thiazol-5-yl)-N-(1,1,1-trifluorobutan-2-yl)benzenesulfonamide], in assay [1], the Kd is 1 nM. On full-length human RORγt, the IC50 is 10 nM and the inhibition at 6 µM turned out to be 106%.

With `CC[C@H](NS(=O)(=O)c1ccc(-c2sc(-c3noc(CC(C)(C)O)n3)nc2C(=O)N2CCC(F)CC2)c(C(F)F)c1F)C(F)(F)F` [Example 12, (S)-3-(Difluoromethyl)-2-fluoro-4-(4-(4-fluoropiperidine-1-carbonyl)-2-(5-(2-hydroxy-2-methylpropyl)-1,2,4-oxadiazol-3-yl)thiazol-5-yl)-N-(1,1,1-trifluorobutan-2-yl)benzenesulfonamide], in assay [1], the Kd was 9.4 nM. Moreover, on full-length human RORγt, the IC50 is 68 nM and the inhibition at 6 µM amounted to 103%.

In the case of `C[C@H](NS(=O)(=O)c1ccc(-c2sc(-c3nnc(CS(C)(=O)=O)o3)nc2C(=O)N2CCC(F)(F)CC2)c(Cl)c1Cl)C(F)(F)F` [Example 1/4, (S)-2,3-Dichloro-4-(4-(4,4-difluoropiperidine-1-carbonyl)-2-(5-((methylsulfonyl)methyl)-1,3,4-oxadiazol-2-yl)thiazol-5-yl)-N-(1,1,1-trifluoropropan-2-yl)benzenesulfonamide], the Kd in assay [1] is 4.7 nM. Also, on full-length human RORγt, the IC50 came out at 55 nM and the inhibition at 6 µM came to 101%.

Consider `CCN(CC(F)(F)F)C(=O)c1nc(-c2nnc(C(C)(C)O)o2)sc1-c1ccc(S(=O)(=O)N[C@@H](C)C(F)(F)F)c(Cl)c1Cl` [Example 4/6, (S)-5-(2,3-Dichloro-4-(N-(1,1,1-trifluoropropan-2-yl)sulfamoyl)phenyl)-N-ethyl-2-(5-(2-hydroxypropan-2-yl)-1,3,4-oxadiazol-2-yl)-N-(2,2,2-trifluoroethyl)thiazole-4-carboxamide], for which, in assay [1], the Kd was 6.3 nM. Also, on full-length human RORγt, the IC50 came to 23 nM and the inhibition at 6 µM was determined as 101%.

For the compound `C[C@H](NS(=O)(=O)c1ccc(-c2sc(-c3nnc(C(C)(C)O)o3)nc2C(=O)N2CCC(F)(F)CC2)c(Cl)c1F)C(F)(F)F` [Example 8/1, (S)-3-Chloro-4-(4-(4,4-difluoropiperidine-1-carbonyl)-2-(5-(2-hydroxypropan-2-yl)-1,3,4-oxadiazol-2-yl)thiazol-5-yl)-2-fluoro-N-(1,1,1-trifluoropropan-2-yl)benzenesulfonamide], the Kd in assay [1] was 5.6 nM. Moreover, on full-length human RORγt, the IC50 was 61 nM and the inhibition at 6 µM amounted to 108%.

Consider `C[C@H](NS(=O)(=O)c1ccc(-c2sc(-c3nnc(C(C)(C)O)o3)nc2C(=O)N2CCCC[C@@H]2C)c(C(F)F)c1F)C(F)(F)F` [Example 6/18, 3-(Difluoromethyl)-2-fluoro-4-(2-(5-(2-hydroxypropan-2-yl)-1,3,4-oxadiazol-2-yl)-4-((S)-2-methylpiperidine-1-carbonyl)thiazol-5-yl)-N—((S)-1,1,1-trifluoropropan-2-yl)benzenesulfonamide], for which the Kd in assay [1] was 1 nM. In addition, on full-length human RORγt, the IC50 is 82 nM and the inhibition at 6 µM was 104%.

Turning to `C[C@H](NS(=O)(=O)c1ccc(-c2sc(-c3nnc(C(C)(C)O)o3)nc2C(=O)N2CCC(F)(F)CC2)c2c1CCCO2)C(F)(F)F` [Example 24, 8-(4-(4,4-Difluoropiperidine-1-carbonyl)-2-(5-(2-hydroxypropan-2-yl)-1,3,4-oxadiazol-2-yl)thiazol-5-yl)-N—((S)-1,1,1-trifluoropropan-2-yl)chroman-5-sulfonamide], in assay [1], the Kd was 5.2 nM. Also, at full-length human RORγt, the IC50 turned out to be 190 nM and the inhibition at 6 µM amounted to 97%.

As for `CC[C@H](NS(=O)(=O)c1ccc(-c2sc(-c3noc(CC(C)(C)C(=O)O)n3)nc2C(=O)N2CC(F)(F)C[C@@H]2C)c(C(F)F)c1Cl)C(F)(F)F` [Example 10/3, 3-(3-(5-(3-Chloro-2-(difluoromethyl)-4-(N—((S)-1,1,1-trifluorobutan-2-yl)sulfamoyl)phenyl)-4-((S)-4,4-difluoro-2-methylpyrrolidine-1-carbonyl)thiazol-2-yl)-1,2,4-oxadiazol-5-yl)-2,2-dimethylpropanoic acid], in assay [1], the Kd was 0.0036 nM. Besides, at full-length human RORγt, the IC50 stood at 50 nM and the inhibition at 6 µM stood at 97%.

For `C[C@H]1CCCCN1C(=O)c1nc(-c2noc(CC(C)(C)C(=O)O)n2)sc1-c1ccc(C(O)(C(F)(F)F)C(F)(F)F)c(Cl)c1Cl` [Example 20, (S)-3-(3-(5-(2,3-Dichloro-4-(1,1,1,3,3,3-hexafluoro-2-hydroxypropan-2-yl)phenyl)-4-(2-methylpiperidine-1-carbonyl)thiazol-2-yl)-1,2,4-oxadiazol-5-yl)-2,2-dimethylpropanoic acid], the Kd in assay [1] is 0.026 nM. Also, on full-length human RORγt, the IC50 turned out to be 12 nM and the inhibition at 2 µM was found to be 101%.

For the compound `C[C@H](NS(=O)(=O)c1ccc(-c2sc(-c3nnc(C(C)(C)O)o3)nc2C(=O)N2CC(F)(F)C[C@@H]2C)c(Cl)c1Cl)C(F)(F)F` [Example 6/5, 2,3-Dichloro-4-(4-((S)-4,4-difluoro-2-methylpyrrolidine-1-carbonyl)-2-(5-(2-hydroxypropan-2-yl)-1,3,4-oxadiazol-2-yl)thiazol-5-yl)-N—((S)-1,1,1-trifluoropropan-2-yl)benzenesulfonamide], the Kd in assay [1] is 0.6 nM. On full-length human RORγt, the IC50 is 23 nM and the inhibition at 6 µM was 103%.

What is called Kd is the constant that tells how readily two partners part at equilibrium. For orientation: IC50 means the concentration needed to halve the response being measured. A word on the inhibition: it is the drop in the measured response relative to a control, in per cent.

These data come from patent US9845319B2, “Amide substituted thiazoles as modulators of RORyt” (Janssen Pharmaceutica NV, priority 2014, dated 2017).
